Laboratory results: patent publication US10030027B2, “Soluble guanylate cyclase stimulators” (MERCK SHARP & DOHME CORP., priority 2015, dated 2018)

Key:
sGC α1/β1 heterodimer = sGC α1/β1 heterodimer (Homo sapiens (Human), UniProt Q02108+Q02153); assay: Cell-based sGC functional assay (cyclic GMP assay for sGC activator: CASA assay); details: CHO-K1/sGC cells; for Emax: CHO-K1, activity expressed as percentage of compound A (standard), read-out: % Activation; for EC50: inflection point, 4P fit, read-out: IP
How it was run: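 CHO-K1 cells stably expressing sGC α1/β1 were pre-incubated with or without 1 μM DETA-NO (30 min, 25 °C), then exposed to compounds for 1 hr at 37 °C with 0.5 mM IBMX. Intracellular cGMP was read by HTRF and expressed as a percentage of a reference heme-dependent activator's maximum.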

[1] = molecular target: human recombinant sGC enzyme (Homo sapiens (Human), UniProt Q02108+Q02153); assay: Size Exclusion Chromatography (SEC) competition binding assay using [3H] Ex-77B as the radioligand; details: [3H] Ex-77B radioligand, 24 hours at 37° C.
How it was run: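 Recombinant human sGC binding measured by competition against tritiated Ex-77B radioligand, with non-specific binding defined by 1 μM unlabeled Ex-77B.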

SMILES | Emax (sGC α1/β1 heterodimer) [%] | EC50 (sGC α1/β1 heterodimer) [nM] | Ki [1] [nM]
C[C@@]1(c2ccc(CCC(=O)NCC(=O)O)cc2)C(=O)Nc2nc(-c3nn(Cc4ccccc4F)c4ncccc34)nc(N)c21 [Example 100B, (S)-(3-(4-{4-Amino-2-[1-(2-fluorobenzyl)-1H-pyrazolo[3,4-b]pyridin-3-yl]-5-methyl-6-oxo-6,7-dihydro-5H-pyrrolo[2,3-d]pyrimidin-5-yl}phenyl)propanoyl)glycine] | 109 | 1800 | 0.039
CC(C)(NC(=O)CCc1ccc([C@]2(C)C(=O)Nc3nc(-c4nn(Cc5ccccc5F)c5ncccc45)nc(N)c32)cc1)C(=O)O [Example 101B, (S)-2-(3-(4-{4-amino-2-[1-(2-fluorobenzyl)-1H-pyrazolo[3,4-b]pyridin-3-yl]-5-methyl-6-oxo-6,7-dihydro-5H-pyrrolo[2,3-d]pyrimidin-5-yl}phenyl)propanamido)-2-methylpropanoic acid] | 111 | 2340 | 0.026
C[C@H](NC(=O)CCc1ccc([C@]2(C)C(=O)Nc3nc(-c4nn(Cc5ccccc5F)c5ncccc45)nc(N)c32)cc1)C(=O)O [Example 103B, (5S)-(3-(4-{4-amino-2-[1-(2-fluorobenzyl)-1H-pyrazolo[3,4-b]pyridin-3-yl]-5-methyl-6-oxo-6,7-dihydro-5H-pyrrolo[2,3-d]pyrimidin-5-yl}phenyl)propanoyl)-L-alanine] | 104 | 2950 | 0.045
CC[C@H](NC(=O)CCc1ccc([C@]2(C)C(=O)Nc3nc(-c4nn(Cc5ccccc5F)c5ncccc45)nc(N)c32)cc1)C(=O)O [Example 105B, (5S,2S)-2-(3-(4-{4-amino-2-[1-(2-fluorobenzyl)-1H-pyrazolo[3,4-b]pyridin-3-yl]-5-methyl-6-oxo-6,7-dihydro-5H-pyrrolo[2,3-d]pyrimidin-5-yl}phenyl)propanamido)butanoic acid] | 97 | 2160 | 0.042
CCCCn1nc(-c2nc(N)c3c(n2)NC(=O)[C@@]3(C)c2ccc(CCC(=O)O)cc2)c2ccc(C)nc21 [Example 111B, (S)-3-{4-{4-amino-2-(1-butyl-6-methyl-1H-pyrazolo[3,4-b]pyridin-3-yl)-5-methyl-6-oxo-6,7-dihydro-5H-pyrrolo[2,3-d]pyrimidin-5-yl}phenyl}propanoic acid] | 86 | 9250 | 1.11
CC1(c2ccc(CC(=O)O)cc2)C(=O)Nc2nc(-c3nn(CCC(F)(F)C(F)(F)F)c4ncccc34)nc(N)c21 (stereo not drawn) [Example 118A, 2-(4-{4-amino-5-methyl-6-oxo-2-[1-(3,3,4,4,4-pentafluorobutyl)-1H-pyrazolo[3,4-b]pyridin-3-yl]-6,7-dihydro-5H-pyrrolo[2,3-d]pyrimidin-5-yl}phenyl)acetic acid] | 86 | 3510 | 0.166
CC1(c2ccc(CCC(=O)O)c(C#N)c2)C(=O)Nc2nc(-c3nn(CCC(F)(F)C(F)(F)F)c4cc(Cl)ccc34)nc(N)c21 (stereo not drawn) [Example 120B, 3-(4-{4-Amino-2-[6-chloro-1-(3,3,4,4,4-pentafluorobutyl)-1H-indazol-3-yl]-5-methyl-6-oxo-6,7-dihydro-5H-pyrrolo[2,3-d]pyrimidin-5-yl}-2-cyanophenyl)propanoic acid] | 127 | 1930 | 0.41

These reach a lower EC50 (sGC α1/β1 heterodimer). Values come first.

Emax (sGC α1/β1 heterodimer) [%] | EC50 (sGC α1/β1 heterodimer) [nM] | Ki [1] [nM] | SMILES
122 | 1150 | 0.799 | CC(C)(Cc1csc([C@]2(C)C(=O)Nc3nc(-c4nn(CCC(F)(F)C(F)(F)F)c5ncccc45)nc(N)c32)n1)C(=O)NO [Example 97B, (S)-3-(2-{4-Amino-5-methyl-6-oxo-2-[1-(3,3,4,4,4-pentafluorobutyl)-1H-pyrazolo[3,4-b]pyridin-3-yl]-6,7-dihydro-5H-pyrrolo[2,3-d]pyrimidin-5-yl}-1,3-thiazol-4-yl)-N-hydroxy-2,2-dimethylpropanamide]
83 | 254 | 0.395 | CC1(c2nn(CC(=O)O)c(=O)o2)C(=O)Nc2nc(-c3nn(CCC(F)(F)C(F)(F)F)c4cc(Cl)ccc34)nc(N)c21 (stereo not drawn) [Example 98A, [5-{4-Amino-2-[6-chloro-1-(3,3,4,4,4-pentafluorobutyl)-1H-indazol-3-yl]-5-methyl-6-oxo-6,7-dihydro-5H-pyrrolo[2,3-d]pyrimidin-5-yl}-2-oxo-1,3,4-oxadiazol-3(2H)-yl]acetic acid]
70 | 1500 | 0.058 | C[C@@]1(c2ccc(CCC(=O)N[C@H](CO)C(=O)O)cc2)C(=O)Nc2nc(-c3nn(Cc4ccccc4F)c4ncccc34)nc(N)c21 [Example 106B, (5S)-(3-(4-{4-amino-2-[1-(2-fluorobenzyl)-1H-pyrazolo[3,4-b]pyridin-3-yl]-5-methyl-6-oxo-6,7-dihydro-5H-pyrrolo[2,3-d]pyrimidin-5-yl}phenyl)propanoyl)-D-serine]
122 | 842 | 0.056 | C[C@@]1(c2ccc(CCC(=O)NCc3nn[nH]n3)cc2)C(=O)Nc2nc(-c3nn(Cc4ccccc4F)c4ncccc34)nc(N)c21 [Example 108B, (S)—N-((2H-Tetrazol-5-yl)methyl)-3-(4-{4-amino-2-[1-(2-fluorobenzyl)-1H-pyrazolo[3,4-b]pyridin-3-yl]-5-methyl-6-oxo-6,7-dihydro-5H-pyrrolo[2,3-d]pyrimidin-5-yl}phenyl)propanamide]
78 | 1660 | 2 | CC1(c2cnn(CCC(=O)O)n2)C(=O)Nc2nc(-c3nn(CCC(F)(F)C(F)(F)F)c4ncccc34)nc(N)c21 (stereo not drawn) [Example 109B, 3-(4-{4-Amino-5-methyl-6-oxo-2-[1-(3,3,4,4,4-pentafluorobutyl)-1H-pyrazolo[3,4-b]pyridin-3-yl]-6,7-dihydro-5H-pyrrolo[2,3-d]pyrimidin-5-yl}-2H-1,2,3-triazol-2-yl)propanoic acid]
78 | 1130 | 0.361 | C[C@@]1(c2ccc(CCC(=O)O)cc2)C(=O)Nc2nc(-c3nn(Cc4ccccc4F)c4cc(Cl)c(O)cc34)nc(N)c21 [Example 110B, (S)-3-(4-{4-Amino-2-[6-chloro-1-(2-fluorobenzyl)-5-hydroxy-1H-indazol-3-yl]-5-methyl-6-oxo-6,7-dihydro-5H-pyrrolo[2,3-d]pyrimidin-5-yl}phenyl)propanoic acid]
89 | 568 | 0.064 | CC1(c2ccc(CCCC(=O)O)cc2)C(=O)Nc2nc(-c3nn(Cc4ccccc4F)c4ncccc34)nc(N)c21 (stereo not drawn) [Example 113B, 4-(4-{4-Amino-2-[1-(2-fluorobenzyl)-1H-pyrazolo[3,4-b]pyridin-3-yl]-5-methyl-6-oxo-6,7-dihydro-5H-pyrrolo[2,3-d]pyrimidin-5-yl}phenyl)butanoic acid]
108 | 1340 | 0.092 | CC1(c2ccc(CC(=O)O)cc2)C(=O)Nc2nc(-c3nn(Cc4ccccc4F)c4ncccc34)nc(N)c21 (stereo not drawn) [Example 114A, (4-{4-Amino-2-[1-(2-fluorobenzyl)-1H-pyrazolo[3,4-b]pyridin-3-yl]-5-methyl-6-oxo-6,7-dihydro-5H-pyrrolo[2,3-d]pyrimidin-5-yl}phenyl)acetic acid]
78 | 608 | 0.296 | CC1(c2ccc(CCCC(=O)O)cc2)C(=O)Nc2nc(-c3nn(CCC(F)(F)C(F)(F)F)c4ncccc34)nc(N)c21 (stereo not drawn) [Example 116A, 4-(4-{4-amino-5-methyl-6-oxo-2-[1-(3,3,4,4,4-pentafluorobutyl)-1H-pyrazolo[3,4-b]pyridin-3-yl)-6,7-dihydro-5H-pyrrolo[2,3-d]pyrimidin-5-yl}phenyl)butanoic acid]
